According to patent US11203591B2, “Substituted 6-azabenzimidazole compounds” (Gilead Sciences, Inc., priority 2018, dated 2021):

What follows are compounds tested against human HPK1 (MAP4K1) (Homo sapiens (Human), UniProt Q92918) (assay: HPK1 IC50 Assay (TR-FRET peptide phosphorylation)). Settings: recombinant HPK1 kinase domain 0.15 nM, 10 μM ATP, 1 μM STK S1 peptide; geometric mean of multiple experiments.
Type: biochemical
Description: The enzymatic activity of human HPK1 (MAP4K1) was monitored in a biochemical assay in the presence or absence of compounds and using a synthetic peptide substrate. An increase in phosphorylation of the peptide by HPK1 was indicative of its kinase activity.
Recombinant HPK1 kinase domain produced via baculovirus infection of insect cells was obtained from Proteros (Proteros Biostructures #PR-0322) and was pre-activated in the presence of 2 mM ATP (Sigma-Aldrich, cat #GE27-2056-01) and 2 mM magnesium chloride for 16 hours at 4° C. The protein reaction mixture was then loaded to a desalting column (Thermo Fisher Scientific, Cat #89889) to remove excess ATP. HPK1 was eluted with buffer containing 20 mM Tris (2-Amino-2-(hydroxymethyl)propane-1,3-diol) pH 8.0, 150 mM NaCl, 2 mM dithiothreitol and 5% glycerol, and was frozen at −80° C. for later use. HPK1 dual phosphorylation was confirmed by mass spectrometry.
Ten nanoliters of test compounds dissolved in DMSO at various concentrations were dispensed into a 384-well ProxiPlate (PerkinElmer #6008289). Five microliters of a solution of recombinant HPK1 diluted in HPK1 kinase assay buffer (50 mM BES [N,N-Bis(2-hydroxyethyl)-2-aminoethanesulfonic acid], pH 7.0; 10 mM magnesium chloride; 0.01% Triton X-100; 1 mM dithiothreitol; 0.01% bovine serum albumin; 0.1 mM sodium orthovanadate) was added to the compound-containing plate and was incubated for 15 minutes at 25° C. Five microliters of a mixture of ATP (Sigma-Aldrich #A6559) and peptide substrate STK S1 (Cisbio #61ST1BLC) diluted in HPK1 kinase assay buffer was then added to start the reaction. Final concentrations were 0.15 nM for HPK1, 10 μM for ATP, and 1 μM for the STK S1 peptide substrate. The reaction mixture was incubated at 25° C. for 3 hours and was stopped with the addition of 10 μl of an EDTA (Ethylenediaminetetraacetic acid)-containing detection buffer (Cisbio #62SDBRDF) supplemented with Europium cryptate-labeled anti-phospho-serine/threonine antibodies (Cisbio #62ST1PEJ) and XL665-labeled streptavidin (Cisbio #610SAXLG). The mixture was incubated for 16 hours at room temperature and peptide phosphorylation was measured by time-resolved fluorescence energy transfer (665 nm/620 nm) on an Envision plate reader (PerkinElmer).
Data in Table 1 were normalized based on positive (staurosporine) and negative (DMSO) controls. Least squares curve fittings were performed using a four-parameter variable slope nonlinear regression model. IC50 is defined as the concentration of compound required to inhibit 50% of maximum phosphorylation. IC50 values from multiple experiments were averaged by geometric mean and the standard deviation was calculated.

Chain of human HPK1 (MAP4K1) (Q92918 17-274): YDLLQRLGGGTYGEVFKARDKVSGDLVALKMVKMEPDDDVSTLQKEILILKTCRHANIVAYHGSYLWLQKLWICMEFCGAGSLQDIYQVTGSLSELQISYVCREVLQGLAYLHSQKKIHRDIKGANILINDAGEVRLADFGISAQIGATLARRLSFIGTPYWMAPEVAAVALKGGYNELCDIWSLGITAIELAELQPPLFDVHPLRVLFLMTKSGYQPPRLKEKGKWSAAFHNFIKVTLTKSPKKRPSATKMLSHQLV

Row | Structure (SMILES) | IC50
1 | CNC(=O)c1cc(Nc2nc(-c3ccc4c(c3)N([C@H]3C[C@@H](N5CCC(C(F)F)C5)C3)C(=O)C4(C)C)cc3ncn(C(C)C)c23)ccc1C (stereo partly shown) [Example 104, 5-((6-(1-((1s,3s)-3-(3-(difluoromethyl)pyrrolidin-1-yl)cyclobutyl)-3,3-dimethyl-2-oxoindolin-6-yl)-3-isopropyl-3H-imidazo[4,5-c]pyridin-4-yl)amino)-N,2-dimethylbenzamide] | 0.2 nM
2 | CNC(=O)c1cc(Nc2nc(-c3ccc4c(c3)N([C@H]3C[C@@H](N5CCCCC5)C3)C(=O)C43CCN(C(=O)C4COC4)CC3)cc3ncn(C4CC4)c23)ccc1C [Example 153] | 0.1 nM
3 | CNC(=O)c1cc(Nc2nc(-c3ccc4c(c3)N([C@H]3C[C@@H](N5CC[C@H](F)C5)C3)C(=O)C43CCN(C4COC4)CC3)cc3ncn(C(C)C)c23)c(F)cc1C [Example 72] | 0.2 nM
4 | CNC(=O)c1cc(Nc2nc(-c3ccc4c(c3)N(C3CC(N5CCC[C@H](C(F)F)C5)C3)C(=O)C4(C)C)cc3ncn(C(C)C)c23)ccc1C (stereo partly shown) [Example 105B, 5-((6-(1-((1s,3s)-3-(3-(difluoromethyl)piperidin-1-yl)cyclobutyl)-3,3-dimethyl-2-oxoindolin-6-yl)-3-isopropyl-3H-imidazo[4,5-c]pyridin-4-yl)amino)-N,2-dimethylbenzamide] | 0.09 nM
5 | CNC(=O)c1cc(Nc2nc(-c3ccc4c(c3)N([C@H]3C[C@@H](N5CCCCC5)C3)C(=O)C43CCN(C(=O)OC)CC3)cc3ncn(C4CC4)c23)ccc1C [Example 50] | 0.1 nM
6 | CC[C@H](C)n1cnc2cc(-c3ccc4c(c3)N([C@H]3C[C@@H](N5CCC[C@@H](F)C5)C3)C(=O)C43CCN(C(C)=O)CC3)nc(Nc3ccc(C)c(C(=O)NC)c3)c21 [Example 157, 5-((6-(1′-acetyl-1-((1S,3R)-3-((R)-3-fluoropiperidin-1-yl)cyclobutyl)-2-oxospiro[indoline-3,4′-piperidin]-6-yl)-3-((S)-sec-butyl)-3H-imidazo[4,5-c]pyridin-4-yl)amino)-N,2-dimethylbenzamide] | 0.2 nM
7 | CCNC(=O)c1cc(Nc2nc(-c3ccc4c(c3)N([C@H]3C[C@@H](N5CCCCC5)C3)C(=O)C43CCN(C4COC4)CC3)cc3ncn(C(C)C)c23)c(F)cc1C [Example 69] | 0.1 nM
8 | Cc1cc(F)c(Nc2nc(-c3ccc4c(c3)N([C@H]3C[C@@H](N5CCCCC5)C3)C(=O)C43CCN(C4COC4)CC3)cc3ncn(C(C)C)c23)cc1C(=O)NC(C)C [Example 99] | 0.2 nM

The next lines start with the values.

Row | IC50 | Structure (SMILES)
9 | 0.1 nM | CCC1(CC)C(=O)N([C@H]2C[C@@H](N3CCCCC3)C2)c2cc(-c3cc4ncn(C(C)C)c4c(Nc4ccc(C)c(C(=O)NC)c4)n3)ccc21 [Example 45]
10 | 0.1 nM | CC(C)NC(=O)c1cc(Nc2nc(-c3ccc4c(c3)N([C@H]3C[C@@H](N5CCCCC5)C3)C(=O)C4(C)C)cc3ncn(C(C)C)c23)ccc1Cl [Example 115]
11 | 0.3 nM | Cc1cc(F)c(Nc2nc(-c3cnc4c(c3)N([C@H]3C[C@@H](N5CCCCC5)C3)C(=O)C4(C)C)cc3ncn(C(C)C)c23)cc1C(=O)NC1(CF)CC1 [Example 134]
12 | 0.2 nM | CC(C)n1cnc2cc(-c3cnc4c(c3)N([C@H]3C[C@@](C)(N5CCC[C@@H](F)C5)C3)C(=O)C4(C)C)nc(Nc3cc(C(=O)NC4(C(F)F)CC4)c(Cl)c(F)c3F)c21 [Example 201, 2-Chloro-N-(1-(difluoromethyl)cyclopropyl)-3,4-difluoro-5-((6-(1-((1S,3s)-3-((R)-3-fluoropiperidin-1-yl)-3-methylcyclobutyl)-3,3-dimethyl-2-oxo-2,3-dihydro-1H-pyrrolo[3,2-b]pyridin-6-yl)-3-isopropyl-3H-imidazo[4,5-c]pyridin-4-yl)amino)benzamide]
13 | 0.1 nM | CNC(=O)c1cc(Nc2nc(-c3ccc4c(c3)N([C@H]3C[C@@H](N5CCC[C@@H](F)C5)C3)C(=O)C4(C)C)cc3ncn(C(C)C)c23)c(F)cc1C [Example 107]
